Test results taken from patent US20020001841A1, “CONTINUOUS T-CELL LINES” (priority 1998, published 2002).
Values joined by “and” are separate entries in the source; they are usually repeats but may differ in a detail not shown here. Equal values may be shown once.

Legend:
[1] = system: activated gut T-lymphocytes in Crohn's disease; type: cell-based, human
[2] = system: gut T-cell cultures from patients with Crohn's disease; type: cell-based, human
[3] = system: gut T-cell cultures from patients with Crohn's disease; type: cell-based, human; remark: listed apart in the source
transmembrane TNFα = settings: murine SP2/O myeloma cells with cleavage resistant transmembrane TNFα; Scatchard analyses; cited from earlier work
transmembrane TNFα, sequence (P01375 88-233 limits assumed): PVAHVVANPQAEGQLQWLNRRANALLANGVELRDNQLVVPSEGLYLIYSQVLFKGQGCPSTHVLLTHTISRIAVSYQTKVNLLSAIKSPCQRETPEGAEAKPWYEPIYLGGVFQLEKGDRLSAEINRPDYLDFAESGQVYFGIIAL

Substance: Infliximab: chimeric TNFα antibody with high avidity for transmembrane TNFα, obtained from Centocor
- 24 hour production of IFNγ (in words) [1]: reduction
- Production of IFNγ and TNFα (in words) [1]: reduced
- Reduction of IFNγ production by Infliximab [1]: 68% and 43% and 49% and 56%
- Reduction of TNFα production by Infliximab [1]: 97%
- Amount of propidium iodide and Annexin-FITC positive cells compared with SEA alone [2]: did not increase
- Apoptosis (in words) [2]: did not induce any apoptosis
- Proliferation rate (in words) [3]: did not change the proliferation rate
- Infliximab molecules bound per cell (transmembrane TNFα): about 35000 molecules per cell
